Test results reported in US10501421B1, “Substituted benzimidazoles as modulators of Ras signaling” (VANDERBILT UNIVERSITY, priority 2017, dated 2019).
Where a name gives a salt, the structure may show the parent alone.

How the values were obtained:
[1] = target: Ras GEF SOS (Son of Sevenless) (Homo sapiens, UniProt Q07889); test: SOS-mediated nucleotide exchange on Ras (BODIPY-GDP fluorescence); type: biochemical; details: SOS-mediated exchange of BODIPY-GDP for GTP on Ras
Summary of the method: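 Exchange rates were taken from single-exponential fits of the fluorescence time course as BODIPY-GDP on Ras was replaced by GTP. Compound went in first, then GTP and SOS. Mean rates plotted against concentration gave EC50 by four-parameter dose-response fitting.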

Son of Sevenless (SOS) = target: T1, Son of Sevenless (SOS) (Homo sapiens, UniProt Q07889); test: Binding to SOS, fluorescence polarization anisotropy (FPA) probe displacement; details: displacement of FITC-conjugated probe (Example 285), affinity calculated from IC50
T1 sequence (Q07889 564-1049 limits assumed): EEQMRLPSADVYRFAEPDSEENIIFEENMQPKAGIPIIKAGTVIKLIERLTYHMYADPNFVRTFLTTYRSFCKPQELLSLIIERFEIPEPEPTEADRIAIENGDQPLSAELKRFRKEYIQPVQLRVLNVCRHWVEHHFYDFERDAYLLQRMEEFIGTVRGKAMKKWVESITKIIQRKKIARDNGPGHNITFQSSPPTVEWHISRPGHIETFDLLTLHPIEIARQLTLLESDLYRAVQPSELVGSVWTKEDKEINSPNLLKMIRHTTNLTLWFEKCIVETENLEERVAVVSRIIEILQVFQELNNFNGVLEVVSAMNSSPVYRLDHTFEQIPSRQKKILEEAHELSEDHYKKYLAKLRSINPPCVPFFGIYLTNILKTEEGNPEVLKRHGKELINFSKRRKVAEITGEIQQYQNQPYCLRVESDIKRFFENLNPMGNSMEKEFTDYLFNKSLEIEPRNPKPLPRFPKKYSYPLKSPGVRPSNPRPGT
Summary of the method: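 Test compounds were titrated against SOS pre-bound to a fluorescein-labelled probe, with anisotropy plotted versus compound concentration. Binding affinities were derived from IC50 values obtained by four-parameter dose-response fitting.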

Ras GEF SOS (Son of Sevenless), sequence (P01112 1-166 partner limits assumed, one chain of several): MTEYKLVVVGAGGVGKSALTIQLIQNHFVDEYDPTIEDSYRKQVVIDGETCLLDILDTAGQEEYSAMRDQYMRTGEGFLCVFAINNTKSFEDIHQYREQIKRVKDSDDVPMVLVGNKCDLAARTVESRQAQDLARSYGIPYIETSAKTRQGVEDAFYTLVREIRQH

`Cc1cc2c(nc(NCCN)n2Cc2ccc(F)c(C)c2)c(-c2ccccc2C)n1` [Example 224, N^1-(1-(4-fluoro-3-methylbenzyl)-6-methyl-4-(o-tolyl)-1H-imidazo[4,5-c]pyridin-2-yl)ethane-1,2-diamine] was tested, and the EC50 [1] was 5 to 30 µM and the Ki (Son of Sevenless (SOS)) was over 5 µM.
In the case of `NCCNc1nc2ccc(C(F)(F)F)cc2n1Cc1ccc(F)c(Cl)c1` [Example 72, N^1-(1-(3-chloro-4-fluorobenzyl)-6-(trifluoromethyl)-1H-benzo[d]imidazol-2-yl)ethane-1,2-diamine trifluoroacetate], the EC50 [1] is reported as 1 to 5 µM and the Ki (Son of Sevenless (SOS)) is reported as 1 to 5 µM.
`Cc1cc2nc(N3CCCNCC3)n(Cc3ccc(F)c(Cl)c3)c2cc1C` [Example 36, 1-(3-chloro-4-fluorobenzyl)-2-(1,4-diazepan-1-yl)-5,6-dimethyl-1H-benzo[d]imidazole trifluoroacetate] showed an EC50 [1] of 5 to 30 µM and a Ki (Son of Sevenless (SOS)) of over 5 µM.
Molecule `Cc1cc(Cn2c(NCCN)nc3c(OCCN4CCCC4)cccc32)ccc1F` [Example 207, N^1-(1-(4-fluoro-3-methylbenzyl)-4-(2-(pyrrolidin-1-yl)ethoxy)-1H-benzo[d]imidazol-2-yl)ethane-1,2-diamine] has an EC50 [1] of under 1 µM and a Ki (Son of Sevenless (SOS)) of 1 to 5 µM.
In the case of `Cc1cc2nc(N[C@H]3C[C@@H](N)C3)n(Cc3ccc(F)c(Cl)c3)c2cc1C` [Example 292, (1s,3s)-N^1-(1-(3-chloro-4-fluorobenzyl)-5,6-dimethyl-1H-benzo[d]imidazol-2-yl)cyclobutane-1,3-diamine], the EC50 [1] is reported as 1 to 5 µM and the Ki (Son of Sevenless (SOS)) is reported as 1 to 5 µM.
For `Cc1cc(NCCCCN(C)C)c2nc(N3CCNCC3)n(Cc3cc(C)c(F)c(C)c3)c2c1` [Example 196, N^1-(1-(4-fluoro-3,5-dimethylbenzyl)-6-methyl-2-(piperazin-1-yl)-1H-benzo[d]imidazol-4-yl)-N^4,N^4-dimethylbutane-1,4-diamine trifluoroacetate], the EC50 [1] was 1 to 5 µM and the Ki (Son of Sevenless (SOS)) was 0.5 to 1 µM.
`Cc1cc2c(nc(N3CC(CN)C3)n2Cc2ccc(F)c(C)c2)c(-c2ccccc2F)n1` [Example 216, (1-(1-(4-fluoro-3-methylbenzyl)-4-(2-fluorophenyl)-6-methyl-1H-imidazo[4,5-c]pyridin-2-yl)azetidin-3-yl)methanamine] gave an EC50 [1] of under 1 µM and a Ki (Son of Sevenless (SOS)) of 0.5 to 1 µM.
Work on `Cc1cc(Cn2c(N3CCNCC3)nc3c(-c4ccnn4-c4cccc5ccccc45)cc(Cl)cc32)cc(C)c1F` [Example 177, 6-chloro-1-(4-fluoro-3,5-dimethylbenzyl)-4-(1-(naphthalen-1-yl)-1H-pyrazol-5-yl)-2-(piperazin-1-yl)-1H-benzo[d]imidazole trifluoroacetate] yielded an EC50 [1] of 30 to 100 µM and a Ki (Son of Sevenless (SOS)) of 1 to 5 µM.
With `Cc1cc(NC[C@H]2CCNC2)c2nc(N3CCNCC3)n(Cc3cc(C)c(F)c(C)c3)c2c1` [Example 198, (S)-1-(4-fluoro-3,5-dimethylbenzyl)-6-methyl-2-(piperazin-1-yl)-N-(pyrrolidin-3-ylmethyl)-1H-benzo[d]imidazol-4-amine trifluoroacetate] the EC50 [1] was 1 to 5 µM and the Ki (Son of Sevenless (SOS)) was 0.5 to 1 µM.
`CCc1cc(Cn2c(NCCN)nc3c(-c4ccccc4Cl)c(C)c(C)cc32)ccc1Cl` [Example 112, N^1-(1-(4-chloro-3-ethylbenzyl)-4-(2-chlorophenyl)-5,6-dimethyl-1H-benzo[d]imidazol-2-yl)ethane-1,2-diamine trifluoroacetate] showed an EC50 [1] of 5 to 30 µM and a Ki (Son of Sevenless (SOS)) of 1 to 5 µM.
Molecule `CC(C)CN1CC[C@@H](C(=O)c2ccccc2)[C@H]1c1cc(Cl)cc2c1nc(N1CCNCC1)n2Cc1ccc(F)c(Cl)c1` [Example 150, ((2S,3R)-2-(6-chloro-1-(3-chloro-4-fluorobenzyl)-2-(piperazin-1-yl)-1H-benzo[d]imidazol-4-yl)-1-isobutylpyrrolidin-3-yl)(phenyl)methanone trifluoroacetate] has an EC50 [1] of 5 to 30 µM and a Ki (Son of Sevenless (SOS)) of over 5 µM.
`Cc1cc2nc(NCCN)n(Cc3ccc(F)cc3)c2cc1C` [Example 22, N^1-(1-(4-fluorobenzyl)-5,6-dimethyl-1H-benzo[d]imidazol-2-yl)ethane-1,2-diamine trifluoroacetate] was tested, and the EC50 [1] was 5 to 30 µM and the Ki (Son of Sevenless (SOS)) was over 5 µM.
Molecule `Fc1cc(F)cc(Cn2c(N3CCNCC3)nc3c(-c4ccccc4F)cccc32)c1` [Example 90, 1-(3,5-difluorobenzyl)-4-(2-fluorophenyl)-2-(piperazin-1-yl)-1H-benzo[d]imidazole] has an EC50 [1] of 1 to 5 µM and a Ki (Son of Sevenless (SOS)) of 1 to 5 µM.
`CCc1cc(Cn2c(NCCN)nc3c(-c4c(C)nn(C)c4C)c(C)c(C)cc32)ccc1Cl` [Example 115, N^1-(1-(4-chloro-3-ethylbenzyl)-5,6-dimethyl-4-(1,3,5-trimethyl-1H-pyrazol-4-yl)-1H-benzo[d]imidazol-2-yl)ethane-1,2-diamine trifluoroacetate] gave an EC50 [1] of 5 to 30 µM and a Ki (Son of Sevenless (SOS)) of over 5 µM.
`Cc1cc(Cn2c(N3CCNCC3)nc3c(N4CCC(N)CC4)cc(Cl)cc32)cc(C)c1F` [Example 319, 1-(6-chloro-1-(4-fluoro-3,5-dimethylbenzyl)-2-(piperazin-1-yl)-1H-benzo[d]imidazol-4-yl)piperidin-4-amine] was tested, and the EC50 [1] was under 1 µM and the Ki (Son of Sevenless (SOS)) was under 0.5 µM.
`COCCN1CCN(c2cc(C)cc3c2nc(N2CCNCC2)n3Cc2cc(C)c(F)c(C)c2)CC1` [Example 195, 1-(4-fluoro-3,5-dimethylbenzyl)-4-(4-(2-methoxyethyl)piperazin-1-yl)-6-methyl-2-(piperazin-1-yl)-1H-benzo[d]imidazole trifluoroacetate] showed an EC50 [1] of 1 to 5 µM and a Ki (Son of Sevenless (SOS)) of 0.5 to 1 µM.
In the case of `Cc1cc(Cn2c(N3CCNCC3)nc3c(C#Cc4ccccc4)cc(Cl)cc32)cc(C)c1F` [Example 123, 6-chloro-1-(4-fluoro-3,5-dimethylbenzyl)-4-(phenylethynyl)-2-(piperazin-1-yl)-1H-benzo[d]imidazole trifluoroacetate], the EC50 [1] is reported as 1 to 5 µM and the Ki (Son of Sevenless (SOS)) is reported as 1 to 5 µM.
Work on `Cc1cc(Cn2c(N3CCNCC3)nc3c(-c4ccccc4C#Cc4ccccc4)cc(Cl)cc32)cc(C)c1F` [Example 182, 6-chloro-1-(4-fluoro-3,5-dimethylbenzyl)-4-(2-(phenylethynyl)phenyl)-2-(piperazin-1-yl)-1H-benzo[d]imidazole trifluoroacetate] yielded an EC50 [1] of 1 to 5 µM and a Ki (Son of Sevenless (SOS)) of over 5 µM.
`Cc1cc2nc(N3CCNCC3)n(Cc3cccc(Br)c3)c2cc1C` [Example 34, 1-(3-bromobenzyl)-5,6-dimethyl-2-(piperazin-1-yl)-1H-benzo[d]imidazole trifluoroacetate] gave an EC50 [1] of 5 to 30 µM and a Ki (Son of Sevenless (SOS)) of over 5 µM.
`Cc1cc2c(nc(N3CCNCC3)n2Cc2ccc(F)c(Cl)c2)c(-c2ccnn2-c2ccc(C(C)C)cc2)c1C` [Example 173, 1-(3-chloro-4-fluorobenzyl)-4-(1-(4-isopropylphenyl)-1H-pyrazol-5-yl)-5,6-dimethyl-2-(piperazin-1-yl)-1H-benzo[d]imidazole trifluoroacetate] was tested, and the EC50 [1] was 5 to 30 µM and the Ki (Son of Sevenless (SOS)) was over 5 µM.
For `Cc1cc(Cn2c(NCC3CNC3)nc3c(C4=CCNCC4)cc(Cl)cc32)cc(C)c1F` [Example 302, N-(azetidin-3-ylmethyl)-6-chloro-1-(4-fluoro-3,5-dimethylbenzyl)-4-(1,2,3,6-tetrahydropyridin-4-yl)-1H-benzo[d]imidazol-2-amine], the EC50 [1] was under 1 µM and the Ki (Son of Sevenless (SOS)) was 0.5 to 1 µM.
`Cc1cc2nc(N3CCNCC3)n(Cc3ccc(F)cc3)c2cc1C` [Example 21, 1-(4-fluorobenzyl)-5,6-dimethyl-2-(piperazin-1-yl)-1H-benzo[d]imidazole trifluoroacetate] showed an EC50 [1] of 5 to 30 µM and a Ki (Son of Sevenless (SOS)) of over 5 µM.
`Cc1cc2nc(NCCN(C)C)n(Cc3cc(C)c(F)c(C)c3)c2cc1C` [Example 44, N^1-(1-(4-fluoro-3,5-dimethylbenzyl)-5,6-dimethyl-1H-benzo[d]imidazol-2-yl)-N^2,N^2-dimethylethane-1,2-diamine trifluoroacetate] gave an EC50 [1] of 5 to 30 µM and a Ki (Son of Sevenless (SOS)) of over 5 µM.
`Cc1cc(Cn2c(NCCN)nc3c(N4CCC(N)CC4)cc(Cl)cc32)cc(C)c1F` [Example 298, N^1-(4-(4-aminopiperidin-1-yl)-6-chloro-1-(4-fluoro-3,5-dimethylbenzyl)-1H-benzo[d]imidazol-2-yl)ethane-1,2-diamine] was tested, and the EC50 [1] was under 1 µM and the Ki (Son of Sevenless (SOS)) was under 0.5 µM.
Work on `Cc1cc2nc(N3CCC(N)CC3)n(Cc3ccc(F)c(Cl)c3)c2cc1C` [Example 294, 1-(1-(3-chloro-4-fluorobenzyl)-5,6-dimethyl-1-benzo[d]imidazol-2-yl)piperidin-4-amine] yielded an EC50 [1] of 5 to 30 µM and a Ki (Son of Sevenless (SOS)) of over 5 µM.
Molecule `Cc1cc(Br)c2nc(NCCN)n(Cc3cc(C)c(F)c(C)c3)c2c1` [Example 313, N^1-(4-bromo-1-(4-fluoro-3,5-dimethylbenzyl)-6-methyl-1H-benzo[d]imidazol-2-yl)ethane-1,2-diamine] has an EC50 [1] of 1 to 5 µM and a Ki (Son of Sevenless (SOS)) of 1 to 5 µM.
For `Cc1cc2c(nc(N3CCNCC3)n2Cc2ccc(F)c(C)c2)c(-c2ccncc2)n1` [Example 226, 1-(4-fluoro-3-methylbenzyl)-6-methyl-2-(piperazin-1-yl)-4-(pyridin-4-yl)-1H-imidazo[4,5-c]pyridine], the EC50 [1] was 5 to 30 µM and the Ki (Son of Sevenless (SOS)) was over 5 µM.
In the case of `Cc1cnc2nc(NC3CCNC3)n(Cc3ccc(F)c(Cl)c3)c2c1` (centres unmarked) [Example 247, 1-(3-chloro-4-fluorobenzyl)-6-methyl-N-(pyrrolidin-3-yl)-1H-imidazo[4,5-b]pyridin-2-amine], the EC50 [1] is reported as 1 to 5 µM and the Ki (Son of Sevenless (SOS)) is reported as 1 to 5 µM.
